Results: US7786098B2, “Fluoroalkoxycombretastatin derivatives, method for producing the same and use thereof” (Zhejiang Dade Pharmaceutical Group Co. Ltd., priority 2006, dated 2010)
Where two headings read alike, the source gives them in different places.

Tests used:
[1] = tested on: HT-29 human colon cancer cell; experiment: In vitro antitumor activity evaluation (SRB/MTT, 72 hours), HT-29; assay type: cell-based; conditions: Logit model, read-out: IC50 Colon cancer HT29
Method: (§1) The tumor cell cultured in vitro being administrated with fluoroalkoxycombretastatin for 72 hours, the MTT and SRB assays was used to evaluate its inhibition of tumor proliferation.
(§2) Cell groups: H460 human lung cancer cell, SGC7901: human stomach cancer cell, HT-29 human colon cancer cell, Bel-7402 human liver cancer cell.
(§3) Experiment design: cells were warm-cultured with the compounds in different concentrations (100, 10, 1, 0.1, 0.01, 0.001 μM) for 72 hours. SRB assay was used to evaluate the inhibition degree of the compounds to cell proliferation. The inhibition rate was calculated, and IC50 was calculated by using Logit model according to the inhibition rate. And the antitumor activity of compounds in vitro was compared.
(§4) The inhibition rate was expressed using the following equation: Inhibition rate (%)=[(average OD value of control group−average OD value of experimental group)/average OD value of control group]×100%.

tubulin = conditions: U.S. Pat. No. 5,561,122; WO 9935150; cited from earlier work
[2] = tested on: SGC7901 human stomach cancer cell; experiment: In vitro antitumor activity evaluation (SRB/MTT, 72 hours), SGC-7901; assay type: cell-based; conditions: Logit model
Method: as §1, §2, §3, §4

tumor = conditions: within 4 to 6 hours after the treatment of CA-4, cancer patients; cited from earlier work
[3] = tested on: H460 human lung cancer cell; experiment: In vitro antitumor activity evaluation (SRB/MTT, 72 hours), H460; assay type: cell-based; conditions: Logit model, read-out: IC50 Non-small cell lung cancer H460
Method: as §1, §2, §3, §4

[4] = tested on: human umbilical vein endothelial cells (HUVEC); experiment: In vitro neovascular inhibition evaluation; assay type: cell-based; conditions: same method as Example 15 (72 hours)
Method: as §1, §3, §4
Anti-angiogenesis effects of fluoroalkoxycombretastatins were assessed in human umbilical vein endothelial cells (HUVEC) using the same method in Example 15.

[5] = tested on: Bel-7402 human liver cancer cell; experiment: In vitro antitumor activity evaluation (SRB/MTT, 72 hours), Bel-7402; assay type: cell-based; conditions: Logit model
Method: as §1, §2, §3, §4

[6] = Homo sapiens, SGC-7901, SRB assay
[7] = Homo sapiens, NCI-H460, SRB assay
[8] = Homo sapiens, Bel-7402, SRB assay

Row | SMILES | IC50 ([1]; SRB assay) | inhibition of tubulin polymerization (tubulin) | IC50 ([2]; SRB assay) | blood flow (tumor) | tumor cells died (tumor) | IC50 ([3]; SRB assay) | IC50 [4] | IC50 ([5]; SRB assay) | IC50 ([1]; Homo sapiens, HT-29, SRB assay) | IC50 [2, 6] | IC50 [3, 7] | IC50 ([4]; Homo sapiens, HUVEC) | IC50 [5, 8]
1 | COc1ccc(/C=C\c2cc(OC)c(OC)c(OC)c2)cc1O [CA-4, combretastatin A-4, reference compound] | 2380 nM | exceptionally strong inhibitors of tubulin polymerization | 10 nM | decreased obviously | more than 95% | 27 nM | 3 nM | 750 nM | – | – | – | – | –
2 | COc1cc(/C=C\c2ccc(OCC(F)(F)F)c(N)c2)cc(OC)c1OC [DD8041, (Z)-1-(3,4,5-trimethoxyphenyl)-2-(3′-amino-4′-trifluoroethoxyphenyl)-ethene] | – | – | – | – | – | – | – | – | 68 nM | 3 nM | 5 nM | 1 nM | 280 nM
3 | COc1cc(/C=C\c2ccc(OC(F)F)c(O)c2)cc(OC)c1OC [DD8011, (Z)-1-(3,4,5-trimethoxyphenyl)-2-(3′-hydroxy-4′-difluoromethoxyphenyl)-ethene] | – | – | – | – | – | – | – | – | 3000 nM | 22 nM | 44 nM | 2 nM | 920 nM
4 | COc1cc(/C=C\c2ccc(OC(F)F)c(N)c2)cc(OC)c1OC [DD8021, (Z)-1-(3,4,5-trimethoxyphenyl)-2-(3′-amino-4′-difluoromethoxyphenyl)-ethene] | – | – | – | – | – | – | – | – | 2250 nM | 18 nM | 36 nM | 2 nM | 830 nM
5 | COc1ccc(/C=C\c2cc(OC)c(OC)c(OC)c2)c(O)c1O [CA-1, combretastatin A-1] | – | exceptionally strong inhibitors of tubulin polymerization | – | – | – | – | – | – | – | – | – | – | –
6 | COc1cc(/C=C\c2ccc(OCC(F)(F)F)c(O)c2)cc(OC)c1OC [DD8031, (Z)-1-(3,4,5-trimethoxyphenyl)-2-(3′-hydroxy-4′-trifluoroethoxyphenyl)-ethene] | – | – | – | – | – | – | – | – | 79 nM | 5 nM | 5 nM | 1 nM | 300 nM
